Where two headings read alike, the source gives them in different places.
Assays:
human TLR7 = biological target: T1, human TLR7 (Homo sapiens, UniProt Q9NYK1); experiment: HEK-Blue hTLR7 SEAP reporter gene inhibition assay; type: cell-based
T1 sequence (Q9NYK1 27-1049): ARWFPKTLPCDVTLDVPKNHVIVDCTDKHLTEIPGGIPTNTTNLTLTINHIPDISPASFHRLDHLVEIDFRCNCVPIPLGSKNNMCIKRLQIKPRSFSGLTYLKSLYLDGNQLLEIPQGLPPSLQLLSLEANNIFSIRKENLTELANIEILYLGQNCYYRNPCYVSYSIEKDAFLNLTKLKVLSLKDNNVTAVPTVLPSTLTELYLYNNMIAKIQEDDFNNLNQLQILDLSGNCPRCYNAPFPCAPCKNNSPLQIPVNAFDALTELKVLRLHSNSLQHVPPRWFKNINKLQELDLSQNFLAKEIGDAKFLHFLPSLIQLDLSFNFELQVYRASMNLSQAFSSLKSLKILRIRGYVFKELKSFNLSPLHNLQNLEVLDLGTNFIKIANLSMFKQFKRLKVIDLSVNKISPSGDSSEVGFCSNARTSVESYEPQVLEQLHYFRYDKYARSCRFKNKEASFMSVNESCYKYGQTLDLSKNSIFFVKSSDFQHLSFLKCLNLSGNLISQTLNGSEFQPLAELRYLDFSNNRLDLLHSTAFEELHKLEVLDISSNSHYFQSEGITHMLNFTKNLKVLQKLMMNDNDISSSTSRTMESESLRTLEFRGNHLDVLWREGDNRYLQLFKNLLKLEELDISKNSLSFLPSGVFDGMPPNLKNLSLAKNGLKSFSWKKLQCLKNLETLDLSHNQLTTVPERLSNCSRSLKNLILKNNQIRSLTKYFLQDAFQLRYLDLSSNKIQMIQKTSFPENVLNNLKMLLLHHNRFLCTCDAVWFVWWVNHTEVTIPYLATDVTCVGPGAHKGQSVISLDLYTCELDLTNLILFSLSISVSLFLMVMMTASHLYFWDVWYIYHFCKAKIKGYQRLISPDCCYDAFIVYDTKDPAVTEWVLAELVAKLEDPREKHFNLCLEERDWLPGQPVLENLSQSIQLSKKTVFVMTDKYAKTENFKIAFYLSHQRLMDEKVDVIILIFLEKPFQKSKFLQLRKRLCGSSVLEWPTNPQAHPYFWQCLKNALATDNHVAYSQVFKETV
Method: (§1) HEK-Blue cells with stable expression of human TLR7 or TLR8 were used in the evaluation of inhibitory activity of compounds in the present invention against TLR7 or TLR8, by using its ability to induce the SEAP reporting gene under the control of the fusion of IFN-β minimum promoters into five NF-κB and ap-1 binding sites, as follows: hTLR7 HEK-Blue cells (Invivogen, 80, 000 cells per well) or hTLR8 HEK-Blue cells (60, 000 cells per well) were added to a 96-well cell culture plate. A solution of the testing compounds were added to each well, with the final concentration of tested compounds in the medium ranged from 0.001 to 36 µM and the culture was incubated for 15 minutes. M5049 was used as positive controls in the testing.
(§2) Then a TLR7 ligand (Gardiquimod, purchased from MedChemExpress, with final concentration of ligand in cell culture medium kept at 10 µM) or a TLR8 ligand (purchased from MedChemExpress with final concentration in cell culture media at 10 µM) and the culture was incubated for 20 hours. According to the manufacturer's instructions, a HEK-Blue reagent Quanti-blue (Invivogen) was used to detect the SEAP levels in cell cultures. The half […] concentration or IC50 was calculated by using GraphPad Prism. […] Table 1: Activities of examples in this invention to hTLR7/8 in HEK-Blue Cells

human TLR8 = biological target: T2, human TLR8 (Homo sapiens, UniProt Q9NR97); experiment: HEK-Blue hTLR8 SEAP reporter gene inhibition assay; type: cell-based; conditions: read-out: HEK-Blue hTLR8 IC50
T2 construct: expressed in transfected cells
T2 sequence (Q9NR97 27-1041): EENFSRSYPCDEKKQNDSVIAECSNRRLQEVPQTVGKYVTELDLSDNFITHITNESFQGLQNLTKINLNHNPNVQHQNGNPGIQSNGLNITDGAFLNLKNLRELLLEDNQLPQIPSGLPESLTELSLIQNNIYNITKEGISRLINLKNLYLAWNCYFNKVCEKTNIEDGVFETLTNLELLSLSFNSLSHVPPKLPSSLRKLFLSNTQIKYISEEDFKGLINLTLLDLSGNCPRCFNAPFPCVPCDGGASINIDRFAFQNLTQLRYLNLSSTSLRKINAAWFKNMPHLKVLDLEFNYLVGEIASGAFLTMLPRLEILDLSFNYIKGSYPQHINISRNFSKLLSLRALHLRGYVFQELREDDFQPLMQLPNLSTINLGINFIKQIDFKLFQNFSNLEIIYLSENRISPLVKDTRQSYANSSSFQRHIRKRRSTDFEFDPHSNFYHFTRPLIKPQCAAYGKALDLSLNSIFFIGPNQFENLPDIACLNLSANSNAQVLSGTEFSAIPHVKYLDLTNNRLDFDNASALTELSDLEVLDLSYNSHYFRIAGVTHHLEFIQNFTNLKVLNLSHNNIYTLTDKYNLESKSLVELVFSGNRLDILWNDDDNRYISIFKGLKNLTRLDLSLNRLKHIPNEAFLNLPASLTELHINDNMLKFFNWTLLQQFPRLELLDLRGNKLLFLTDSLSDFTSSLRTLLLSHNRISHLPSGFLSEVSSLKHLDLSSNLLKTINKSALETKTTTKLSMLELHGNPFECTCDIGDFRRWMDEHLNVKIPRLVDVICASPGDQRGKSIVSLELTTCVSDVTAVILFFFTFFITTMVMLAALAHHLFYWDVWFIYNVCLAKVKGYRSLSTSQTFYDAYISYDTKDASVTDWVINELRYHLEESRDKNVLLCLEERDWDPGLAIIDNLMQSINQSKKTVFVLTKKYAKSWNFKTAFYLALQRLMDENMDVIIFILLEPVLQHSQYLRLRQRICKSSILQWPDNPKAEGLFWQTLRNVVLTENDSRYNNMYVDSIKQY
Method: as §1, §2

[1] = hTLR7 HEK-Blue cells, TLR7 ligand Gardiquimod 10 µM, 20 hours, SEAP by Quanti-blue, class symbols, read-out: HEK-Blue hTLR7 IC50
[2] = hTLR8 HEK-Blue cells, TLR8 ligand 10 µM, 20 hours, SEAP by Quanti-blue, class symbols

Row | Compound | IC50 (human TLR7; [1]) | IC50 (human TLR8; [2]) | also measured
1 | C[C@@H]1CN(c2ccc(C#N)n3ncc(F)c23)Cc2c3c(nn21)C[C@@](C)(N1CCC(O)C1)CC3 (stereo partly drawn) [Example I-188, 3-Fluoro-4-((4R,8S)-8-(3-hydroxypyrrolidin-1-yl)-4,8-dimethyl-3,4,7,8,9,10-hexahydropyrazino[1,2-b]indazol-2(1H)-yl)pyrazolo[1,5-a]pyridine-7-carbonitrile] | > 0.05 µM | < 100 nM | 
2 | C[C@@H]1CN(c2ccc(C#N)n3ncc(F)c23)Cc2c3c(nn21)CNC(c1cnn(C)c1)C3 (stereo partly drawn) [Example I-91, 3-Fluoro-4-((4R)-4-methyl-9-(1-methyl-1H-pyrazol-4-yl)-3,4,7,8,9,10-hexahydropyrido[3',4':3,4]pyrazolo[1,5-a]pyrazin-2(1H)-yl)pyrazolo[1,5-a]pyridine-7-carbonitrile] | < 0.05 µM | < 100 nM | 
3 | C[C@@H]1CN(c2ccc(C#N)n3ncc(F)c23)Cc2c3c(nn21)CN(CC(=O)N1CCOCC1)[C@@H](C)C3 [Example I-139, 4-((4R,9S)-4,9-dimethyl-8-(2-morpholino-2-oxoethyl)-3,4,7,8,9,10-hexahydropyrido [3',4':3,4]pyrazolo[1,5-a]pyrazin-2(1H)-yl)-3-fluoropyrazolo[1,5-a]pyridine-7-carbonitrile] | < 0.05 µM | > 100 nM | 
4 | C[C@@H]1CN(c2ccc(C#N)n3ncc(F)c23)Cc2c3c(nn21)CNC(C)(C)C3 [Example I-83, (R)-3-Fluoro-4-(4,9,9-trimethyl-3,4,7,8,9,10-hexahydropyrido[3',4':3,4]pyrazolo [1,5-a]pyrazin-2(1H)-yl)pyrazolo[1,5-a]pyridine-7-carbonitrile] | < 0.05 µM | < 100 nM | 
5 | CC1Cc2nn3c(c2CN1)CN(c1ccc(C#N)n2ncc(F)c12)C[C@H]3C (stereo partly drawn) [Example I-11, 4-((7R)-3,7-dimethyl-1,3,4,7,8,10-hexahydropyrido[4',3':3,4]pyrazolo[1,5-a]pyrazin-9(2H)-yl)-3-fluoropyrazolo[1,5-a]pyridine-7-carbonitrile] | < 0.05 µM | < 100 nM | 
6 | COC[C@H]1Cc2c(nn3c2CN(c2ccc(C#N)n4ncc(F)c24)C[C@H]3C)CN1 [Example I-82, 3-Fluoro-4-((4R,9R)-9-(methoxymethyl)-4-methyl-3,4,7,8,9,10-hexahydropyrido [3',4':3,4]pyrazolo[1,5-a]pyrazin-2(1H)-yl)pyrazolo[1,5-a]pyridine-7-carbonitrile] | < 0.05 µM | > 100 nM | 
7 | C[C@@H]1CN(c2ccc(C#N)n3ncc(F)c23)Cc2c3c(nn21)CN(CC(=O)N1CCC1)[C@@H](C)C3 [Example I-138, 4-((4R,9S)-8-(2-(azetidin-1-yl)-2-oxoethyl)-4,9-dimethyl-3,4,7,8,9,10-hexahydropyrido [3',4':3,4]pyrazolo[1,5-a]pyrazin-2(1H)-yl)-3-fluoropyrazolo[1,5-a]pyridine-7-carbonitrile] |  |  | IC50 (human TLR7; read-out: HEK-Blue hTLR7 IC50): < 0.05 µM; IC50 (human TLR8): > 100 nM
8 | C[C@@H]1CN(c2ccc(C#N)n3ncc(F)c23)Cc2c3c(nn21)C(C)(C)NCC3 [Example I-45, (R)-3-Fluoro-4-(4,7,7-trimethyl-3,4,7,8,9,10-hexahydropyrido[3',4':3,4]pyrazolo[1,5-a]pyrazin-2(1H)-yl)pyrazolo[1,5-a]pyridine-7-carbonitrile] | < 0.05 µM | < 100 nM | 
9 | C[C@@H]1CN(c2ccc(C#N)n3ncc(F)c23)Cc2c3c(nn21)CN[C@@H](C)C3 [Example I-30a] | < 0.05 µM | < 100 nM | 
10 | 3-Fluoro-4-((4R,9S)-8-(2-((R)-3-fluoropyrrolidin-1-yl)-2-oxoethyl)-4,9-dimethyl-3,4,7,8,9,10-hexahydropyrido[3',4':3,4]pyrazolo[1,5-a]pyrazin-2(1H)-yl)pyrazolo[1,5-a]pyridine-7-carbonitrile [Example I-149] | < 0.05 µM | > 100 nM | 
11 | C[C@@H]1CN(c2ccc(C#N)n3ncc(F)c23)Cc2c3c(nn21)CN(Cc1ncco1)[C@@H](C)C3 [Example I-133, 4-((4R,9S)-4,9-dimethyl-8-(oxazol-2-ylmethyl)-3,4,7,8,9,10-hexahydropyrido[3',4':3,4]pyrazolo[1,5-a]pyrazin-2(1H)-yl)-3-fluoropyrazolo[1,5-a]pyridine-7-carbonitrile] | > 0.05 µM |  | 
12 | C[C@@H]1CN(c2ccc(C#N)n3ncc(F)c23)Cc2c3c(nn21)CCN(CC(F)F)C3 [Example I-56, (R)-4-(2-(2,2-difluoroethyl) -7-methyl-1,3,4,7,8, 10-hexahydropyridine [4 ', 3 ': 3, 4]pyrazole [1,5-a]pyrazine-9 (2H) -yl) -3-fluoropyrazole [1,5-a] pyridine-7-nitrile] |  |  | IC50 (human TLR7; HEK-Blue hTLR7 IC50 (µM)): > 0.05 µM
13 | C[C@@H]1CN(c2ccc(C#N)n3ncc(F)c23)Cc2c3c(nn21)CCN(Cc1cnn(C)c1)C3 [Example I-67, (R)-3-Fluoro-4-(7-methyl-2-((1-methyl-1H-pyrazol-4-yl)methyl)-1,3,4,7,8,10-hexahydropyrido[4',3':3,4]pyrazolo[1,5-a]pyrazin-9(2H)-yl)pyrazolo[1,5-a]pyridine-7-carbonitrile] | > 0.05 µM |  | 
14 | C[C@@H]1CN(c2ccc(C#N)n3ncc(F)c23)Cc2c3c(nn21)CCC(N)C3 (stereo partly drawn) [Example I-9, 4-((4R)-9-amino-4-methyl-3,4,7,8,9,10-hexahydropyrazino[1,2-b]indazol-2(1H)-yl)-3-fluoropyrazolo[1,5-a]pyridine-7-carbonitrile] | > 0.05 µM |  | 
15 | C[C@@H]1CN(c2ccc(C#N)n3ncc(F)c23)Cc2c3c(nn21)CCN(C1CCC1)C3 [Example I-49, (R)-4-(2-cyclobutyl-7-methyl-1,3,4,7,8,10-hexahydropyrido[4',3':3,4]pyrazolo[1,5-a]pyrazin-9(2H)-yl)-3-fluoropyrazolo[1,5-a]pyridine-7-carbonitrile] | > 0.05 µM |  | 
16 | C[C@@H]1CN(c2ccc(C#N)n3ncc(F)c23)Cc2c3c(nn21)CCN(Cc1ccn[nH]1)C3 [Example I-62] |  |  | IC50 (human TLR7; HEK-Blue hTLR7 IC50 (µM)): > 0.05 µM
